# Reference: patent US6335339B1, “Triazine antiviral compounds” (Scriptgen Pharmaceuticals, Inc., priority 1998, dated 2002)
# System: 2.2.15 cells
# Test: neutral red dye uptake cytotoxicity
# Format: cell-based
# Conditions: 9 days treatment, read-out: 50% Cell Death CC50
# How it was run: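 Confluent 2.2.15 cultures, same conditions as antiviral assay, treated daily for 9 days with 4 concentrations (3.3-fold dilutions), triplicate wells. 24 hours after the final dose, cells stained 30 minutes with 0.01% neutral red, dye extracted and A510 read; values as % of untreated cultures, CC50 as 50% cell death.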
row,SMILES,CC50
1,Brc1cc2c(cc1C=NNc1nc(NCc3ccccc3)nc(Nc3ccccc3)n1)OCO2 [Compound 43],87 µM
2,FC(F)(F)c1cccc(Nc2nc(Nc3cccc(Br)c3)nc(N3CCOCC3)n2)c1 [Compound 38],125 µM
3,Cc1[nH]c2ccccc2c1C=NNc1nc(Nc2ccccc2)nc(N2CCCCC2)n1 [Compound 88],> 100 µM
4,COc1ccc(C=NNc2nc(Nc3ccccc3)nc(Nc3ccc(C)cc3C)n2)c(OC)c1 [Compound 61],1.3 µM
5,O=[N+]([O-])c1ccc(C=NNc2nc(Nc3ccccc3)nc(NC3CCCCC3)n2)cc1 [Compound 46],> 100 µM
6,C(=NNc1nc(Nc2ccccc2)nc(N2CCCCC2)n1)c1ccccc1 [Compound 3],> 100 µM
7,CCCCN(CCCC)c1nc(NN=Cc2c[nH]c3ccccc23)nc(Nc2ccc([N+](=O)[O-])cc2)n1 [Compound 39],5.3 µM
8,Cc1[nH]c2ccccc2c1C=NNc1nc(NCc2ccccc2)nc(Nc2ccccc2)n1 [Compound 50],30 µM
9,Cc1[nH]c2ccccc2c1C=NNc1nc(Nc2ccccc2)nc(N2CCOCC2)n1 [Compound 4],3.7 µM
10,O=[N+]([O-])c1ccc(Nc2nc(N/N=C/c3cccc(Cl)c3)nc(N3CCCCC3)n2)cc1 [Compound 41],> 300 µM
11,O=[N+]([O-])c1cc(C=NNc2nc(Nc3ccccc3)nc(N3CCOCC3)n2)ccc1Cl [Compound 52],11 µM
12,CCN(CC)c1nc(NN=Cc2cc([N+](=O)[O-])ccc2OC)nc(Nc2cc(C)ccc2C)n1 [Compound 85],209 µM
13,C(=Cc1ccccc1)C=NNc1nc(NCc2ccccc2)nc(Nc2ccccc2)n1 [Compound 91],> 300 µM
14,Cc1ccc(Nc2nc(NN=Cc3ccc4c(c3)OCO4)nc(Nc3ccccc3)n2)c(C)c1 [Compound 51],130 µM
15,CC(C)c1ccc(C=NNc2nc(Nc3ccc([N+](=O)[O-])cc3)nc(N3CCCCC3)n2)cc1 [Compound 62],> 100 µM
16,Cc1ccc(Nc2nc(NN=Cc3ccc(Cl)cc3)nc(Nc3ccccc3)n2)c(C)c1 [Compound 42],237 µM
17,CCN(CC)c1nc(NN=Cc2ccc(F)cc2)nc(Nc2ccc([N+](=O)[O-])cc2)n1 [Compound 68],> 300 µM
18,CC(C)c1ccc(C=NNc2nc(Nc3ccc([N+](=O)[O-])cc3)nc(N3CCCCCC3)n2)cc1 [Compound 56],63 µM
19,COc1ccc(C=NNc2nc(Nc3ccc([N+](=O)[O-])cc3)nc(N3CCCCC3)n2)cc1 [Compound 44],285 µM
20,Cc1ccc(Nc2nc(NN=Cc3ccc(Cl)c(Cl)c3)nc(Nc3ccccc3)n2)c(C)c1 [Compound 40],136 µM
21,COc1ccccc1C=NNc1nc(Nc2ccc([N+](=O)[O-])cc2)nc(Nc2ccc(C)c(C)c2)n1 [Compound 94],> 300 µM
22,CCN(CC)c1nc(N/N=C/c2ccc([N+](=O)[O-])cc2)nc(Nc2cc(C)ccc2C)n1 [Compound 63],> 100 µM
23,CC(C)(C)Nc1nc(NCc2ccccc2)nc(NN=Cc2ccc3c(c2)OCO3)n1 [Compound 67],> 100 µM
24,CCCCN(CCCC)c1nc(NN=C(C)c2ccccc2)nc(Nc2ccc([N+](=O)[O-])cc2)n1 [Compound 74],> 100 µM
25,CNc1nc(NN=Cc2ccccc2[N+](=O)[O-])nc(Nc2ccccc2)n1 [Compound 65],17 µM
26,Cc1ccc(Nc2nc(NN=Cc3cccc(Br)c3)nc(Nc3ccccc3)n2)c(C)c1 [Compound 49],140 µM
27,Oc1ccc(Nc2nc(Nc3cccc(C(F)(F)F)c3)nc(N3CCOCC3)n2)cc1 [Compound 53],72 µM
